Source: US9597407B2, “Targeted antimicrobial moieties” (C3 Jian, Inc., priority 2009, dated 2017)
Entries after “also recorded” stand apart in the source; their conditions may differ.

How the values were obtained:
bacteria = assay: Binding of targeting peptides to microorganisms (Table 3); conditions: preferably 1x PBS; for Target(s) (microorganism bound by the targeting peptide) / Target(s) (microorganisms bound by the targeting peptide): peptide binding in aqueous buffers that varied depending on peptide solubility
microorganisms = assay: Morphology, biofilm and growth disruption by peptides (Table 5); type: cell-based; parameters: key: A: Peptide aggregates; B: Less hyphal formation; Clumps; Diffuse clumps and small polyps; F: Diffuse growth; H: Thin; I: Growth inhibition; Microcolony formation; Rippled; Small polyps; Thick; W: Halo formation on top, microlonies on bottom
Source text: In certain embodiments peptides that induce alterations in phenotype or other biological activities can also be used as antimicrobial effector moieties.

[1] = microorganism bound by the targeting peptide, binding in aqueous buffers chosen by peptide solubility
[2] = microorganism the targeting peptide binds, binding in aqueous buffers that varied with peptide solubility

Substance: PF-686 (chain 1 LAVLMGYIGYRGWSGKRHINRQ; chain 2 LAVLMGYIGYRGWSGKRHINRQ; Peptide with targeting and/or antimicrobial activity)
- Target(s) (microorganism bound by the targeting peptide) (bacteria): M. smegmatis
- Organism, effect (morphology, biofilm and growth disruption) (microorganisms; B. subtilis): B. subtilis (I)
- Organism, effect (morphology, biofilm and growth disruption) (microorganisms; C. albicans): C. albicans (B)
- Organism, effect (morphology, biofilm and growth disruption) (microorganisms; E. faecalis): E. faecalis (R)
- Organism, effect (morphology, biofilm and growth disruption) (microorganisms; MRSA): MRSA (M)
- Organism, effect (morphology, biofilm and growth disruption) (microorganisms; S. epidermidis): S. epidermidis (H)
- Organism, effect (morphology, biofilm and growth disruption) (microorganisms; S. pneumoniae): S. pneumoniae (A)

Substance: PF-176 (RLTSNQFLTRITPFVFAQH; Peptide with targeting and/or antimicrobial activity)
- Target(s) (bacteria; [1]): S. epidermidis and M. luteus and P. mirabilis and E. coli and C. albicans and MRSA and E. faecalis and C. jeikeium
- Organism, effect (microorganisms; C. jeikeium): C. jeikeium (D)
- Organism, effect (microorganisms; M. luteus): M. luteus (C)
- Organism, effect (microorganisms; S. epidermidis): S. epidermidis (C)

Substance: VWENRKKYLENEIERHNVFLKLGQEVIKGLNALASRGR [PF-257]
- Target(s) (bacteria; [1]): S. epidermidis
- Organism, effect (microorganisms; M. luteus): M. luteus (R)

Substance: PF-008 (chain 1 MIEIGSIAYLNGGSKKYNHILNQENR; chain 2 MIEIGSIAYLNGGSKKYNHILNQENR; Peptide with targeting and/or antimicrobial activity)
- Target(s) (bacteria; [2]): S. epidermidis and M. luteus and MRSA and C. jejuni
- Organism, effect (microorganisms; B. subtilis): B. subtilis (D)
- Organism, effect (microorganisms; C. jejuni): C. jejuni (R)

Substance: PF-429 (AATLICVGSGIMSSL; Peptide with targeting and/or antimicrobial activity)
- Target(s) (microorganisms bound by the targeting peptide) (bacteria): S. epidermidis; also recorded: S. pneumoniae; also recorded: C. jeikeium
- Organism, effect (morphology, biofilm and growth disruption) (microorganisms; E. faecalis): E. faecalis (C)
- Organism, effect (morphology, biofilm and growth disruption) (microorganisms; MRSA): MRSA (C)
- Organism, effect (morphology, biofilm and growth disruption) (microorganisms; S. epidermidis): S. epidermidis (C)
- Organism, effect (morphology, biofilm and growth disruption) (microorganisms; S. pneumoniae): S. pneumoniae (M)

Substance: PF-C088 (DIANNILNSVSERLIIA; Peptide with targeting and/or antimicrobial activity)
- Target(s) (microorganism bound by the targeting peptide) (bacteria): A. naeslundii; also recorded: F. nucleatum; also recorded: P. gingivalis; also recorded: S. mutans; also recorded: T. denticola
- Organism, effect (morphology, biofilm and growth disruption) (microorganisms; F. nucleatum): F. nucleatum (H)
- Organism, effect (morphology, biofilm and growth disruption) (microorganisms; P. gingivalis): P. gingivalis (R)
- Organism, effect (morphology, biofilm and growth disruption) (microorganisms; S. mutans): S. mutans (I)

Substance: PF-129 (MKLLARDPWVCAWNDIW; Peptide with targeting and/or antimicrobial activity)
- Target(s) (bacteria; [1]): S. epidermidis and MRSA and E. faecalis and C. jeikeium and C. jejuni
- Organism, effect (microorganisms; C. jeikeium): C. jeikeium (R)
- Organism, effect (microorganisms; S. epidermidis): S. epidermidis (M)

Substance: PF-677 (chain 1 TCRGAGMH; chain 2 TCRGAGMH; Peptide with targeting and/or antimicrobial activity)
- Target(s) (microorganism bound by the targeting peptide) (bacteria): Mycobacteria spp
- Organism, effect (morphology, biofilm and growth disruption) (microorganisms; E. faecalis): E. faecalis (R)
- Organism, effect (morphology, biofilm and growth disruption) (microorganisms; MRSA): MRSA (D)
- Organism, effect (morphology, biofilm and growth disruption) (microorganisms; S. epidermidis): S. epidermidis (R)
- Organism, effect (morphology, biofilm and growth disruption) (microorganisms; S. pneumoniae): S. pneumoniae (D)

Substance: LSPRPIIVSRRSRADNNNDWSR [PF-143]
- Target(s) (bacteria; [1]): S. epidermidis and MRSA and C. jeikeium
- Organism, effect (microorganisms; P. aeruginosa): P. aeruginosa (C)

Substance: PF-C136 (LILSYQASVYPLFAYLCQQKDY; Peptide with targeting and/or antimicrobial activity)
- Target(s) (microorganism bound by the targeting peptide) (bacteria): A. naeslundii; also recorded: F. nucleatum; also recorded: P. gingivalis; also recorded: S. mutans; also recorded: T. denticola
- Organism, effect (morphology, biofilm and growth disruption) (microorganisms; F. nucleatum): F. nucleatum (C)
- Organism, effect (morphology, biofilm and growth disruption) (microorganisms; P. gingivalis): P. gingivalis (R)

Substance: PF-688 (chain 1 ARNHAVIPAG; chain 2 ARNHAVIPAG; Peptide with targeting and/or antimicrobial activity)
- Target(s) (microorganism bound by the targeting peptide) (bacteria): Mycobacteria spp
- Organism, effect (morphology, biofilm and growth disruption) (microorganisms; S. pneumoniae): S. pneumoniae (A)

Substance: PF-208 (DAYHCHLVRSPDAHDLSMRIGFV; Peptide with targeting and/or antimicrobial activity)
- Target(s) (bacteria; [1]): S. epidermidis and C. albicans and MRSA and S. pneumoniae and E. faecalis and C. jeikeium and C. jejuni
- Organism, effect (microorganisms; C. jeikeium): C. jeikeium (A)
- Organism, effect (microorganisms; S. epidermidis): S. epidermidis (D)

Substance: PF-C062 (PLARATEVVATLFIICSLLLYLTR; Peptide with targeting and/or antimicrobial activity)
- Target(s) (microorganism bound by the targeting peptide) (bacteria): A. naeslundii; also recorded: F. nucleatum; also recorded: P. gingivalis; also recorded: S. mutans; also recorded: T. denticola
- Organism, effect (morphology, biofilm and growth disruption) (microorganisms; F. nucleatum): F. nucleatum (T)
- Organism, effect (morphology, biofilm and growth disruption) (microorganisms; S. mutans): S. mutans (I)

Substance: PF-667 (chain 1 PAHQRLRIDQRLVADRDMVQDYES; chain 2 PAHQRLRIDQRLVADRDMVQDYES; Peptide with targeting and/or antimicrobial activity)
- Target(s) (microorganism bound by the targeting peptide) (bacteria): Mycobacteria spp
- Organism, effect (morphology, biofilm and growth disruption) (microorganisms; E. faecalis): E. faecalis (R)
- Organism, effect (morphology, biofilm and growth disruption) (microorganisms; MRSA): MRSA (R)
- Organism, effect (morphology, biofilm and growth disruption) (microorganisms; S. epidermidis): S. epidermidis (R)
- Organism, effect (morphology, biofilm and growth disruption) (microorganisms; S. pneumoniae): S. pneumoniae (R)

Substance: PF-665 (chain 1 VLRVATAVGEVPTGL; chain 2 VLRVATAVGEVPTGL; Peptide with targeting and/or antimicrobial activity)
- Target(s) (microorganism bound by the targeting peptide) (bacteria): Mycobacteria spp
- Organism, effect (morphology, biofilm and growth disruption) (microorganisms; S. pneumoniae): S. pneumoniae (H)

Substance: PF-C057 (YFWWYWVQDCIPYKNNEVWLELSNNMK; Peptide with targeting and/or antimicrobial activity)
- Target(s) (microorganism bound by the targeting peptide) (bacteria): A. naeslundii; also recorded: F. nucleatum; also recorded: P. gingivalis; also recorded: S. mutans
- Organism, effect (morphology, biofilm and growth disruption) (microorganisms; S. mutans): S. mutans (I)

Substance: PF-C069 (NALMLREMQLAKNIKVEVTDVLSNKKYC; Peptide with targeting and/or antimicrobial activity)
- Target(s) (microorganism bound by the targeting peptide) (bacteria): A. naeslundii; also recorded: F. nucleatum; also recorded: P. gingivalis; also recorded: S. mutans; also recorded: T. denticola
- Organism, effect (morphology, biofilm and growth disruption) (microorganisms; F. nucleatum): F. nucleatum (T)

Substance: PF-699 (chain 1 GRAGVKCRRPTGR; chain 2 GRAGVKCRRPTGR; Peptide with targeting and/or antimicrobial activity)
- Target(s) (microorganism bound by the targeting peptide) (bacteria): Mycobacteria spp
- Organism, effect (morphology, biofilm and growth disruption) (microorganisms; S. pneumoniae): S. pneumoniae (A)

Substance: PF-675 (chain 1 EIIPISPTRRCEMHTMSSAEYRGL; chain 2 EIIPISPTRRCEMHTMSSAEYRGL; Peptide with targeting and/or antimicrobial activity)
- Target(s) (microorganism bound by the targeting peptide) (bacteria): Mycobacteria spp
- Organism, effect (morphology, biofilm and growth disruption) (microorganisms; E. faecalis): E. faecalis (R)
- Organism, effect (morphology, biofilm and growth disruption) (microorganisms; S. pneumoniae): S. pneumoniae (C)

Substance: MIRIRSPTKKKLNRNSISDWKSNTSGRFFY [PF-283]
- Target(s) (bacteria; [1]): B. subtilis; also recorded: B. fragilis; also recorded: C. difficile
- Organism, effect (microorganisms; B. subtilis): B. subtilis (H)
- Organism, effect (microorganisms; S. epidermidis): S. epidermidis (H)

Substance: PF-647 (chain 1 GTFLGQKCAAATAS; chain 2 GTFLGQKCAAATAS; Peptide with targeting and/or antimicrobial activity)
- Target(s) (microorganism bound by the targeting peptide) (bacteria): Mycobacteria spp
- Organism, effect (morphology, biofilm and growth disruption) (microorganisms; C. albicans): C. albicans (B)
- Organism, effect (morphology, biofilm and growth disruption) (microorganisms; S. pneumoniae): S. pneumoniae (R)

Substance: PF-416 (SKAGLYGKIERSDKRE; Peptide with targeting and/or antimicrobial activity)
- Target(s) (microorganisms bound by the targeting peptide) (bacteria): S. pneumoniae; also recorded: C. jeikeium
- Organism, effect (microorganisms; S. pneumoniae): S. pneumoniae (H)

Substance: PF-128 (GIKVVAARFEEIQFSENFDSIILA; Peptide with targeting and/or antimicrobial activity)
- Target(s) (bacteria; [1]): M. luteus; also recorded: P. aeruginosa; also recorded: E. faecalis
- Organism, effect (microorganisms; P. aeruginosa): P. aeruginosa (C)
- Organism, effect (microorganisms; S. epidermidis): S. epidermidis (D)

Substance: PF-C180 (TVEELDKAFTWGAAAALAIGVIAINVGLAAGYCYNNNDVF; Peptide with targeting and/or antimicrobial activity)
- Target(s) (microorganism bound by the targeting peptide) (bacteria): F. nucleatum; also recorded: P. gingivalis; also recorded: S. mutans; also recorded: T. denticola
- Organism, effect (morphology, biofilm and growth disruption) (microorganisms; P. gingivalis): P. gingivalis (R)
- Organism, effect (morphology, biofilm and growth disruption) (microorganisms; S. mutans): S. mutans (S)

Substance: PF-691 (chain 1 HRTVEFGVLGTYLVSGGSL; chain 2 HRTVEFGVLGTYLVSGGSL; Peptide with targeting and/or antimicrobial activity)
- Target(s) (microorganism bound by the targeting peptide) (bacteria): Mycobacteria spp
- Organism, effect (morphology, biofilm and growth disruption) (microorganisms; S. pneumoniae): S. pneumoniae (R)

Substance: PF-613 (ADEFAKL; Peptide with targeting and/or antimicrobial activity)
- Target(s) (microorganism bound by the targeting peptide) (bacteria): C. jeikeium
- Organism, effect (morphology, biofilm and growth disruption) (microorganisms; E. faecalis): E. faecalis (A)
- Organism, effect (morphology, biofilm and growth disruption) (microorganisms; MRSA): MRSA (C)
- Organism, effect (morphology, biofilm and growth disruption) (microorganisms; S. epidermidis): S. epidermidis (R)

Substance: ALDCSEQSVILWYETILDKIVGVIK [PF-028]
- Target(s) (bacteria; [2]): S. epidermidis and M. luteus and MRSA
- Organism, effect (microorganisms; C. jeikeium): C. jeikeium (M)
- Organism, effect (microorganisms; MRSA): MRSA (R)
- Organism, effect (microorganisms; S. epidermidis): S. epidermidis (M)

Substance: PF-609 (TEIKLDNNEYLVLNLDDILGILK; Peptide with targeting and/or antimicrobial activity)
- Target(s) (microorganism bound by the targeting peptide) (bacteria): P. mirabilis; also recorded: E. coli; also recorded: S. pneumoniae
- Organism, effect (morphology, biofilm and growth disruption) (microorganisms; C. jejuni): C. jejuni (R)
- Organism, effect (morphology, biofilm and growth disruption) (microorganisms; E. faecalis): E. faecalis (A)
- Organism, effect (morphology, biofilm and growth disruption) (microorganisms; MRSA): MRSA (C)
- Organism, effect (morphology, biofilm and growth disruption) (microorganisms; S. pneumoniae): S. pneumoniae (R)
